Measurements as given in the NIST ThermoML archive (doi:10.1016/j.fluid.2004.09.013).
± gives the expanded uncertainty stated by the source.

Settings: for mass density: Fluid (supercritical or subcritical phases), Vibrating tube method

C=CCC [1-butene]
mass density (453.25 K, 9992 kPa): 366.88 ± 0.87 kg/m3 | mass density (458.24 K, 5019 kPa): 127.66 ± 0.62 kg/m3 | mass density (458.24 K, 14983 kPa): 409.67 ± 0.92 kg/m3 | mass density (458.24 K, 20004 kPa): 440.23 ± 1 kg/m3 | mass density (458.24 K, 29989 kPa): 478.1 ± 1.2 kg/m3 | mass density (458.24 K, 34985 kPa): 491.83 ± 1.3 kg/m3 | mass density (458.24 K, 39994 kPa): 503.63 ± 1.4 kg/m3 | mass density (458.25 K, 9993 kPa): 354.52 ± 0.85 kg/m3 | mass density (458.25 K, 25009 kPa): 461.51 ± 1.1 kg/m3 | mass density (463.24 K, 5016 kPa): 120.75 ± 0.6 kg/m3 | mass density (463.24 K, 14996 kPa): 401.9 ± 0.91 kg/m3 | mass density (463.24 K, 19997 kPa): 433.9 ± 1 kg/m3 | mass density (463.24 K, 25004 kPa): 456.08 ± 1.1 kg/m3 | mass density (463.24 K, 30003 kPa): 473.27 ± 1.2 kg/m3 | mass density (463.24 K, 34993 kPa): 487.39 ± 1.3 kg/m3 | mass density (463.25 K, 9983 kPa): 341.52 ± 0.83 kg/m3 | mass density (463.25 K, 39998 kPa): 499.47 ± 1.4 kg/m3 | mass density (468.24 K, 5016 kPa): 115 ± 0.58 kg/m3 | mass density (468.24 K, 9989 kPa): 328.56 ± 0.8 kg/m3 | mass density (468.24 K, 14982 kPa): 393.76 ± 0.89 kg/m3 | mass density (468.24 K, 19984 kPa): 427.48 ± 0.99 kg/m3 | mass density (468.24 K, 24997 kPa): 450.6 ± 1.1 kg/m3 | mass density (468.24 K, 30000 kPa): 468.38 ± 1.2 kg/m3 | mass density (468.24 K, 35011 kPa): 482.95 ± 1.3 kg/m3 | mass density (468.24 K, 39999 kPa): 495.31 ± 1.4 kg/m3 | mass density (473.24 K, 5018 kPa): 110.27 ± 0.55 kg/m3 | mass density (473.24 K, 9985 kPa): 315.25 ± 0.78 kg/m3 | mass density (473.24 K, 19988 kPa): 421.13 ± 0.98 kg/m3 | mass density (473.24 K, 24992 kPa): 445.14 ± 1.1 kg/m3 | mass density (473.24 K, 29997 kPa): 463.51 ± 1.2 kg/m3 | mass density (473.24 K, 35002 kPa): 478.49 ± 1.2 kg/m3 | mass density (473.24 K, 39996 kPa): 491.17 ± 1.3 kg/m3 | mass density (473.25 K, 14995 kPa): 385.74 ± 0.88 kg/m3 | mass density (478.24 K, 5019 kPa): 106.11 ± 0.53 kg/m3 | mass density (478.24 K, 9987 kPa): 302.04 ± 0.75 kg/m3 | mass density (478.24 K, 14989 kPa): 377.47 ± 0.86 kg/m3 | mass density (478.24 K, 19983 kPa): 414.69 ± 0.97 kg/m3 | mass density (478.24 K, 24987 kPa): 439.66 ± 1.1 kg/m3 | mass density (478.24 K, 30006 kPa): 458.68 ± 1.1 kg/m3 | mass density (478.24 K, 35011 kPa): 474.08 ± 1.2 kg/m3 | mass density (478.24 K, 39998 kPa): 487.02 ± 1.3 kg/m3 | mass density (483.24 K, 5019 kPa): 102.43 ± 0.51 kg/m3 | mass density (483.24 K, 9986 kPa): 289.02 ± 0.72 kg/m3 | mass density (483.24 K, 14996 kPa): 369.24 ± 0.85 kg/m3 | mass density (483.24 K, 19994 kPa): 408.37 ± 0.95 kg/m3 | mass density (483.24 K, 24993 kPa): 434.22 ± 1.1 kg/m3 | mass density (483.24 K, 30007 kPa): 453.8 ± 1.1 kg/m3 | mass density (483.24 K, 35009 kPa): 469.63 ± 1.2 kg/m3 | mass density (483.24 K, 39997 kPa): 482.92 ± 1.3 kg/m3 | mass density (488.24 K, 5019 kPa): 99.18 ± 0.48 kg/m3 | mass density (488.24 K, 9991 kPa): 276.55 ± 0.7 kg/m3 | mass density (488.24 K, 14995 kPa): 361.05 ± 0.83 kg/m3 | mass density (488.24 K, 20003 kPa): 402.02 ± 0.94 kg/m3 | mass density (488.24 K, 24984 kPa): 428.73 ± 1 kg/m3 | mass density (488.24 K, 29996 kPa): 448.96 ± 1.1 kg/m3 | mass density (488.24 K, 35002 kPa): 465.2 ± 1.2 kg/m3 | mass density (488.24 K, 39995 kPa): 478.82 ± 1.3 kg/m3 | mass density (493.24 K, 5019 kPa): 96.24 ± 0.46 kg/m3 | mass density (493.24 K, 9993 kPa): 264.66 ± 0.67 kg/m3 | mass density (493.24 K, 14985 kPa): 352.7 ± 0.82 kg/m3 | mass density (493.24 K, 19990 kPa): 395.6 ± 0.93 kg/m3 | mass density (493.24 K, 24997 kPa): 423.36 ± 1 kg/m3 | mass density (493.24 K, 30000 kPa): 444.14 ± 1.1 kg/m3 | mass density (493.24 K, 35000 kPa): 460.8 ± 1.2 kg/m3 | mass density (493.24 K, 39994 kPa): 474.74 ± 1.3 kg/m3 | mass density (498.24 K, 5019 kPa): 93.59 ± 0.44 kg/m3 | mass density (498.24 K, 9985 kPa): 253.12 ± 0.65 kg/m3 | mass density (498.24 K, 14988 kPa): 344.51 ± 0.8 kg/m3 | mass density (498.24 K, 19988 kPa): 389.08 ± 0.92 kg/m3 | mass density (498.24 K, 25004 kPa): 417.97 ± 1 kg/m3 | mass density (498.24 K, 30000 kPa): 439.33 ± 1.1 kg/m3 | mass density (498.24 K, 35005 kPa): 456.43 ± 1.2 kg/m3 | mass density (498.24 K, 39995 kPa): 470.68 ± 1.3 kg/m3 | mass density (503.24 K, 5016 kPa): 91.1 ± 0.42 kg/m3 | mass density (503.24 K, 9996 kPa): 242.88 ± 0.63 kg/m3 | mass density (503.24 K, 14997 kPa): 336.49 ± 0.79 kg/m3 | mass density (503.24 K, 19985 kPa): 382.45 ± 0.9 kg/m3 | mass density (503.24 K, 25003 kPa): 412.55 ± 1 kg/m3 | mass density (503.24 K, 29994 kPa): 434.51 ± 1.1 kg/m3 | mass density (503.24 K, 34998 kPa): 452.04 ± 1.2 kg/m3 | mass density (503.24 K, 39994 kPa): 466.64 ± 1.3 kg/m3 | mass density (508.24 K, 5019 kPa): 88.94 ± 0.41 kg/m3 | mass density (508.24 K, 9985 kPa): 232.83 ± 0.6 kg/m3 | mass density (508.24 K, 14995 kPa): 328.41 ± 0.77 kg/m3 | mass density (508.24 K, 20001 kPa): 376.3 ± 0.89 kg/m3 | mass density (508.24 K, 25001 kPa): 407.17 ± 1 kg/m3 | mass density (508.24 K, 29985 kPa): 429.72 ± 1.1 kg/m3 | mass density (508.24 K, 34995 kPa): 447.71 ± 1.2 kg/m3 | mass density (508.24 K, 39994 kPa): 462.63 ± 1.3 kg/m3 | mass density (513.23 K, 19985 kPa): 369.92 ± 0.88 kg/m3 | mass density (513.23 K, 35000 kPa): 443.43 ± 1.2 kg/m3 | mass density (513.24 K, 5019 kPa): 86.9 ± 0.39 kg/m3 | mass density (513.24 K, 9990 kPa): 224.06 ± 0.58 kg/m3 | mass density (513.24 K, 14981 kPa): 320.32 ± 0.76 kg/m3 | mass density (513.24 K, 24995 kPa): 401.8 ± 0.99 kg/m3 | mass density (513.24 K, 30001 kPa): 425.05 ± 1.1 kg/m3 | mass density (513.24 K, 39991 kPa): 458.64 ± 1.3 kg/m3 | mass density (518.23 K, 5019 kPa): 85.01 ± 0.38 kg/m3 | mass density (518.23 K, 14997 kPa): 312.76 ± 0.74 kg/m3 | mass density (518.23 K, 19988 kPa): 363.73 ± 0.87 kg/m3 | mass density (518.23 K, 25002 kPa): 396.53 ± 0.98 kg/m3 | mass density (518.23 K, 30001 kPa): 420.37 ± 1.1 kg/m3 | mass density (518.23 K, 35013 kPa): 439.18 ± 1.2 kg/m3 | mass density (518.24 K, 9981 kPa): 215.7 ± 0.56 kg/m3 | mass density (518.24 K, 39995 kPa): 454.74 ± 1.3 kg/m3 | mass density (523.23 K, 5018 kPa): 83.27 ± 0.37 kg/m3 | mass density (523.23 K, 9990 kPa): 208.53 ± 0.58 kg/m3 | mass density (523.23 K, 14996 kPa): 305.24 ± 0.77 kg/m3 | mass density (523.23 K, 19995 kPa): 357.64 ± 0.87 kg/m3 | mass density (523.23 K, 25003 kPa): 391.29 ± 0.97 kg/m3 | mass density (523.23 K, 30001 kPa): 415.71 ± 1.1 kg/m3 | mass density (523.23 K, 35000 kPa): 434.96 ± 1.2 kg/m3 | mass density (523.23 K, 40001 kPa): 450.86 ± 1.2 kg/m3 | Critical pressure (Liquid): 4005.1 ± 11 kPa | Critical temperature (Liquid): 419.29 ± 0.11 K | Critical density (Liquid, visual observation in a variable volume cell:FP): 237.88 ± 4.8 kg/m3
